The source of these data is US12410113B2, “Sandalwood-type fragrance compounds” (SYMRISE AG, priority 2019, dated 2025).

This assay can be described thus: Odor detection threshold (ODT) by olfactometer TO8 and a panel of experts according to EN 13725. As to conditions: for ODT (exp.) (−log): odor detection threshold as −log; for ODT (exp.) / ODT* (exp.) (ppm (v/v)): odor detection threshold, olfactometer TO8, expert panel, EN 13725. The protocol: The ODT was measured by an olfactometer TO8 and a panel of experts according to standard EN 13725.

The structures appear in SMILES notation.

On to `CC1=CCC(CCC(C)CO)C1(C)C` (stereo not shown) [Brahmanol, 2-methyl-4-(2′,2′,3′-trimethyl-3′-cyclopenten-1′-yl)-butan-1-ol, reference compound], for which the “ODT (exp.) (−log)” value was found to be 6.85E+00, the “ODT (exp.)” value was 141.22 ng/L and the “ODT* (exp.) (ppm (v/v))” value is listed as 1.73E−02 ppm (v/v).

`C=C(CO)CCC1CC=C(C)C1(C)C` (stereo not shown) [Compound A, 2-methylene-4-(2,2,3-trimethylcyclopent-3-en-1-yl)butan-1-ol]: the “ODT (exp.) (−log)” value came out at 8.36E+00, the “ODT (exp.)” value worked out at 4.34 ng/L and the “ODT* (exp.) (ppm (v/v))” value is on record as 5.37E−04 ppm (v/v). Further, the “factor by which threshold value is lower than Brahmanol” value (in comparison with Brahmanol) was “about 35”.
